Data taken from patent US20170107203A1, “HETEROCYCLIC INHIBITORS OF THE SODIUM CHANNEL” (EPIRUS BIOPHARMACEUTICALS, INC., priority 2014, published 2017).

Biological target: T1, human Nav1.7 (Homo sapiens, UniProt Q15858)
T1 construct: expressed in transfected cells
Test: Assessment of Nav1.7 activity on PatchXpress (voltage dependence / slow inactivation parameters)
Type: cell-based
Details: compound at 10 μM, relative to 0.2% DMSO vehicle control; for hNav1.7: Reduction in current at 20 mV (normalized data) Delta Ratio: before/after 30 sec conditioning pulse at 20 mV; for hNav1.7: Shift in voltage dependence of inactivation (mV) Delta Vhalf: PatchXpress
Protocol: The generation of a HEK 293F cell line stably expressing human Nav1.7/Navp1 was achieved by co-transfecting human SCN9A and human SCN1B cDNAs, subcloned into plasmid vectors, utilizing standard transfection techniques. Clones were selected using appropriate selection agents (0.3 mg/mL Zeocin and 0.8 mg/mL Geneticin) and maintained in Dulbecco's Modified Eagle medium, 10% fetal bovine serum, 1% non-essential amino acids to ˜80% confluence at 37° C. in a humidified incubator with 95% atmosphere and 5% CO2.
On the day of each experiment, cells that were grown to 80% confluence in a T75 flask were harvested for use on PatchXpress (Molecular Devices, CA, USA). Following a recovery period at 37° C. in a humidified incubator with 95% atmosphere and 5% CO2 in Dulbecco's Modified Eagle Medium, the media was replaced with an external recording solution containing (in mM): 90 TEACI, 50 NaCl, 1.8 CaCl2, 1 MgCl2, 10 HEPES, 10 glucose, adjusted to pH 7.4 with TEAOH and 300 mOsm with sucrose. The internal recording solution contained (in mM): 129 CsF, 2 MgCl2, 11 EGTA, 10 HEPES, 6 NaCl, 3 Na2ATP adjusted to pH 7.2 with CsOH and 280 mOsm with sucrose. The automated liquid handling facility of PatchXpress dispensed cells and added compound. Modulation of Nav1.7 channels by compounds was assessed by promoting the channels into the inactivated state using a conditioning voltage pulse of variable amplitude, followed by a brief hyperpolarizing pulse with a subsequent depolarized voltage step to measure the current amplitude in the presence and absence of compound. Compounds were assayed at 10 μM. Based upon this Patch express protocol, four electrophysiological parameters were measured relative to a 0.2% DMSO vehicle control (Table 2).

T1 sequence (Q15858 whole entry): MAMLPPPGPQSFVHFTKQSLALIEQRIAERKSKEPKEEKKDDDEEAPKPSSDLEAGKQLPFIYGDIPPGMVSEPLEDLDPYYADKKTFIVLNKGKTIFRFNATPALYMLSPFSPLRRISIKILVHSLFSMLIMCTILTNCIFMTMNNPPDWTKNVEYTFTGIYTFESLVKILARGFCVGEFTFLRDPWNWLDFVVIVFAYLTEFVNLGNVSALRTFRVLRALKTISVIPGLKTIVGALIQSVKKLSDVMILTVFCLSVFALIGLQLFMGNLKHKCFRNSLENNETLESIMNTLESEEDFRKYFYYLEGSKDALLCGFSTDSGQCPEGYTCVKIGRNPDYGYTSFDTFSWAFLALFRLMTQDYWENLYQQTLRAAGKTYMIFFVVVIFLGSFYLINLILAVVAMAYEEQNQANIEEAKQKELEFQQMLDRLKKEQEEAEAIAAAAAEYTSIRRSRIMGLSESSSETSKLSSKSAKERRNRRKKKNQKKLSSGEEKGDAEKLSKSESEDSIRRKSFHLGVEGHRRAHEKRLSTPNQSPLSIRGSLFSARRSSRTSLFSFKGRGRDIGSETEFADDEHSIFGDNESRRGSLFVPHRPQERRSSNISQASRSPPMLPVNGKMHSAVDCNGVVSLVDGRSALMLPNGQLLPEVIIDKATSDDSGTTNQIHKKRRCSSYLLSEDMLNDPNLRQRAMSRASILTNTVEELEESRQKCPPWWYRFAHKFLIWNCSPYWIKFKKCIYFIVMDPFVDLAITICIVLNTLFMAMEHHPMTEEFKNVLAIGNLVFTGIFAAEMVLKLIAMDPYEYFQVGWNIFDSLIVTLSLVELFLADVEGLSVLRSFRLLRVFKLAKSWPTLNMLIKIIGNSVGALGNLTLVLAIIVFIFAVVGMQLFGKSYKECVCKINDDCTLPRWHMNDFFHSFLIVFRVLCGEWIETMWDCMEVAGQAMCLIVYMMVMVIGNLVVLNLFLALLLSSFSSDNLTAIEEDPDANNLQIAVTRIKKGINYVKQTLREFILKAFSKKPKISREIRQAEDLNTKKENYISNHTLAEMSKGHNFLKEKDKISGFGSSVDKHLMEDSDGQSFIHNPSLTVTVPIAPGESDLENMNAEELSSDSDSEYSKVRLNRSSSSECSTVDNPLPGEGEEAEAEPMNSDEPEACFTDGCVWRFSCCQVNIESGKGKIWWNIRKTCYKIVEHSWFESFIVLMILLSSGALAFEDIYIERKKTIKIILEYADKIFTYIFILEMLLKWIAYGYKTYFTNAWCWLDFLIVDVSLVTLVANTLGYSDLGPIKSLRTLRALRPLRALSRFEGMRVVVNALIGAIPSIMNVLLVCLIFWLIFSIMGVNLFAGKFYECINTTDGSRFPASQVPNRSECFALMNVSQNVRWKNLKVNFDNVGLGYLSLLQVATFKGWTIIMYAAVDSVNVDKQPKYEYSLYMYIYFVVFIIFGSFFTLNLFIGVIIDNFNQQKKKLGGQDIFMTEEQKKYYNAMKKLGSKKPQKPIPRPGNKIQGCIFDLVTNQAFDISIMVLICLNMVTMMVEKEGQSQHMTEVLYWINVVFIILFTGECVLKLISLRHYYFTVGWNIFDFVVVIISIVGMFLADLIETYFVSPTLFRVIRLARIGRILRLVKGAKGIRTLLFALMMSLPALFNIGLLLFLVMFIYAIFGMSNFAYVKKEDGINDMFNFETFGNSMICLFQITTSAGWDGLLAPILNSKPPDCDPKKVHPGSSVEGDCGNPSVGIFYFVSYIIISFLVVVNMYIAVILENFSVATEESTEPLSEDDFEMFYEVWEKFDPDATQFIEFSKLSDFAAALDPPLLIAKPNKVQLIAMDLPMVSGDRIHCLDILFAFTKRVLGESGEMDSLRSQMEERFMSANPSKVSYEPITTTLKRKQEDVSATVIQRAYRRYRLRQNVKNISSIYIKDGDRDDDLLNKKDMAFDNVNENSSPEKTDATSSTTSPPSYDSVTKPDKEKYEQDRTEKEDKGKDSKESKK
T1 sequence (Q07699 19-218 partner): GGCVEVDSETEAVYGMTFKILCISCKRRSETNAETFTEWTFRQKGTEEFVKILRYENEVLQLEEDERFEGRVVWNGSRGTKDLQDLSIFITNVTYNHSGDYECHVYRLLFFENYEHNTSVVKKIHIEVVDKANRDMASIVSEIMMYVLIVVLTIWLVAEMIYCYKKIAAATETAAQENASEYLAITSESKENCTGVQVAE

Row | Compound | hNav1.7: Reduction in current at 20 mV (normalized data) Delta Ratio | hNav1.7: Voltage dependence of activation (mV) VDEP [mV] | hNav1.7: Voltage dependence of fast inactivation (mV) VDEP [mV] | hNav1.7: Shift in voltage dependence of inactivation (mV) Delta Vhalf [mV]
1 | Cc1cccc(C)c1OCC(C)NC(=O)CCN1CCNCC1=O (stereo not drawn) [Compound 36, N-(1-(2,6-dimethylphenoxy)propan-2-yl)-3-(2-oxopiperazin-1-yl)propanamide] | −0.04 | −12.90 | −5.00 | −2.90
2 | Cc1cccc(C)c1OCC(C)NC(=O)C(C)(C)N1CCNCC1=O (stereo not drawn) [Compound 37, N-(1-(2,6-dimethylphenoxy)propan-2-yl)-2-methyl-2-(2-oxopiperazin-1-yl)propanamide] | −0.09 | −9.00 | −6.30 | −5.00
3 | NCC[C@@H]1Nc2c(cc(C(F)(F)F)cc2C(F)(F)F)NC1=O [Compound 39, (S)-3-(2-aminoethyl)-5,7-bis(trifluoromethyl)-3,4-dihydroquinoxalin-2(1H)-one] | −0.08 | −7.40 | −3.10 | −4.90
4 | NC[C@@H]1Nc2c(cc(C(F)(F)F)cc2C(F)(F)F)NC1=O [Compound 40, (S)-3-(aminomethyl)-5,7-bis(trifluoromethyl)-3,4-dihydroquinoxalin-2(1H)-one] | −0.02 | −6.60 | −2.60 | −3.90
5 | O=C1NC(=O)C(c2cc(C(F)(F)F)cc(C(F)(F)F)c2)N1 (stereo not drawn) [Compound 41, 5-(3,5-bis(trifluoromethyl)phenyl) imidazolidine-2,4-dione] | 0.00 | −9.00 | −5.30 | −2.80
6 | CC1(c2cc(C(F)(F)F)cc(C(F)(F)F)c2)NC(=O)NC1=O (stereo not drawn) [Compound 42, 5-(3,5-bis(trifluoromethyl)phenyl)-5-methylimidazolidine-2,4-dione] | 0.02 | −6.60 | −2.50 | 0.50
7 | CC12CC3CC(C)(C1)CC(NC(=O)[C@H]1CCCN1)(C3)C2 [Compound 43, (2R)-N-(3,5-dimethyladamantan-1-yl)pyrrolidine-2-carboxamide] | −0.12 | −11.40 | −5.70 | −8.50
8 | O=C(NCC12CC3CC(CC(C3)C1)C2)[C@H]1CCCN1 [Compound 44, (R)-N-(adamantan-1-ylmethyl)pyrrolidine-2-carboxamide] | −0.11 | −13.20 | −6.00 | −5.40
9 | O=C(NC12CC3CC(CC(C3)C1)C2)[C@@H]1CCCN1 [Compound 45, (S)-N-(adamantan-1-yl)pyrrolidine-2-carboxamide] | −0.07 | −5.10 | −7.00 | −6.20
10 | CC12CC3CC(C)(C1)CC(NC(=O)CCN)(C3)C2 [Compound 46, 3-amino-N-(3,5-dimethyladamantan-1-yl)propanamide] | −0.04 | −7.90 | −4.50 | −1.70
11 | O=C(CN1CCNCC1=O)NCC(F)(F)F [Compound 47, 2-(2-oxopiperazin-1-yl)-N-(2,2,2-trifluoroethyl)acetamide] | −0.02 | −8.90 | −4.40 | −2.50
12 | O=C(NCCc1c[nH]c2ccc(F)cc12)[C@@H]1CCCN1 [Compound 48, (S)-N-(2-(5-fluoro-1H-indol-3-yl)ethyl)pyrrolidine-2-carboxamide] | −0.01 | −4.80 | −3.00 | −1.80

Next, values leading:

Row | hNav1.7: Reduction in current at 20 mV (normalized data) Delta Ratio | hNav1.7: Voltage dependence of activation (mV) VDEP [mV] | hNav1.7: Voltage dependence of fast inactivation (mV) VDEP [mV] | hNav1.7: Shift in voltage dependence of inactivation (mV) Delta Vhalf [mV] | Compound
13 | −0.18 | −10.20 | −7.80 | −6.40 | O=C(NC[C@H]1CCCN1)Nc1cc(C(F)(F)F)cc(C(F)(F)F)c1 [Compound 49, (R)-1-(3,5-bis(trifluoromethyl)phenyl)-3-(pyrrolidin-2-ylmethyl)urea]
14 | 0.02 | −8.30 | −2.10 | −0.30 | CC(=O)N1CCC(NC(=O)Nc2ccc(OC(F)(F)F)cc2)CC1 [Compound 50, 1-(1-acetylpiperidin-4-yl)-3-(4-(trifluoromethoxy)phenyl)urea]
15 | −0.35 | −9.5 | −11.5 | −20.8 | N[C@@H](Cc1ccccc1)c1nc2cc(C(F)(F)F)cc(C(F)(F)F)c2[nH]1 [Compound 51, (S)-1-(4,6-bis(trifluoromethyl)-1H-benzo[d]imidazol-2-yl)-2-phenylethan-1-amine]
16 | −0.28 | −7.2 | −8.2 | −14.9 | NC1(c2nc3cc(C(F)(F)F)cc(C(F)(F)F)c3[nH]2)Cc2ccccc2C1 [Compound 52, 2-(4,6-bis(trifluoromethyl)-1H-benzo[d]imidazol-2-yl)-2,3-dihydro-1H-inden-2-amine]
17 | −0.28 | −8.2 | −3.9 | −7.2 | N[C@@H](Cc1ccccc1)Cc1nc2cc(C(F)(F)F)cc(C(F)(F)F)c2[nH]1 [Compound 53, (S)-1-(4,6-bis(trifluoromethyl)-1H-benzo[d]imidazol-2-yl)-3-phenylpropan-2-amine]
18 | −0.26 | −8.6 | −6.2 | −15.1 | N[C@H](Cc1cccc(F)c1)c1nc2cc(C(F)(F)F)cc(C(F)(F)F)c2[nH]1 [Compound 55, (R)-1-(4,6-bis(trifluoromethyl)-1H-benzo[d]imidazol-2-yl)-2-(3-fluorophenyl)ethan-1-amine]
